Laboratory results from publication PMC5548701, “Selective targeting of melanoma using N-(2-diethylaminoethyl) 4-[^18F]fluoroethoxy benzamide (4-[^18F]FEBZA): a novel PET imaging probe” (EJNMMI Research, 2017).
Values joined by “and” are separate entries in the source; they are usually repeats but may differ in a detail not shown here. Identical values can stand only once. “Also recorded” adds a separate entry of the source. Like-named read-outs stand apart in the source and are kept apart here.

How the values were obtained:
B16F1 cells = test: homologous competitive binding assay on fixed B16F1 cells; parameters: species or system murine; conditions: homologous competition with unlabeled 4-FEBZA, 1 h
Protocol: After adding 0.1 nmol of 4-[^18F]FEBZA/well as the radioligand, unlabeled 4-FEBZA (2) was added to the quadruplicate sets of wells in concentrations ranging from 10^−11 to 10^−4 M and the plates were incubated for an hour at 37 °C under 5% CO2. At the end of the incubation, the media were removed, and the cells were washed with 500 μL of ice-cold media. The cells were lysed using 1 mL of phosphate-buffered saline containing 10% Triton X-100, and the lysates were collected in culture tubes to measure the radioactivity contents using a γ-counter. We performed a non-linear regression analysis of the decay-corrected CPM values to calculate the inhibition constant value (IC50), the concentration of competitor required to inhibit 50% of radiotracer binding, utilizing the GraphPad Prism software program (GraphPad Software, Inc., CA).

B16F1 melanoma cells = test: in vitro cell binding, influence of incubation time and temperature; assay type: cell-based, murine; conditions: 2.5 × 10^5 cells/well, percent of total radioactivity added
Protocol: The in vitro cell binding was assessed by growing B16F1 cells in culture flasks to 80–90% confluence, trypsinizing, washing in PBS (pH 7.4), aliquoting into 12-well plates and allowing adherence to the wells overnight. Initially, we studied the influence of the incubation time and temperature on the binding to B16F1 melanoma cells. For this study, 12-well plates containing ~2.5 × 10^5 cells/well were incubated at 0, 22, and 37 °C with 4-[^18F]FEBZA in quadruplicate sets for 15, 30, 60, 120, and 180 min. After the incubation, the media were removed, and each well was washed with fresh ice-cold media (2 × 2 mL). The adherent cells were removed by lysing cells in 500 μL of PBS containing 10% Triton X-100 (Sigma-Aldrich, St. Louis, MO). The combined washes and lysate were analyzed for radioactivity content using a γ-counter.

[1] = tested on: B16F1 melanoma tumor xenografts; test: biodistribution in mice bearing B16F1 tumor xenografts; assay type: in vivo, C57BL/6 mice; conditions: for tumor-to-brain tissue ratio: B16F1 group; for Adrenals %IA/g tissue (mean ± SD) / Blood %IA/g tissue (mean ± SD) / Bone %IA/g tissue (mean ± SD) / Brain %IA/g tissue (mean ± SD) / Heart %IA/g tissue (mean ± SD) / Kidneys %IA/g tissue (mean ± SD) / Liver %IA/g tissue (mean ± SD) / Lung %IA/g tissue (mean ± SD) / Muscles %IA/g tissue (mean ± SD) / Pancreas %IA/g tissue (mean ± SD) / Sm. Intestine %IA/g tissue (mean ± SD) / Spleen %IA/g tissue (mean ± SD): B16F1 tumor mice; for Tumor %IA/g tissue (mean ± SD): B16F1 tumor
Protocol: (§1) B16F1 melanoma cells, HT-29 human colorectal adenocarcinoma cells, and C-32 amelanotic melanoma cells were purchased from the American Type Culture Collection (ATCC, Rockville, MD). B16F1 murine melanotic melanoma cells were maintained in Dulbecco’s modified Eagles medium supplemented with 10% fetal calf-serum, 2 mM L-glutamine, and 1 mM pyruvate. HT-29 and C-32 cells were maintained in RPMI supplemented with 10% fetal calf serum and 2 mM L-glutamine. C57BL/6 and athymic nu/nu mice were purchased from Charles River Laboratories (Charles River Laboratories, Boston, MA). All animal studies were performed using an IACUC-approved protocol, and the work was performed under the guidelines established by Wake Forest University. The cells were grown to confluency, harvested, washed with phosphate-buffered saline and then were suspended in a 1:1 mixture of phosphate-buffered saline and Matrigel (BD Life Sciences, San Jose, CA) at a concentration of 5 × 10^6 cells/mL. For subcutaneous tumor xenografts, […] in the right flank with 100 μL of a suspension of B16F1 cells, and female athymic nu/nu mice were injected in the right flank with 100 μL of HT-29 cells or C-32 cells.
(§2) The biodistribution studies were performed in mice bearing B16F1 (1 h n = 5; 2 h n = 6), C-32 (1 h n = 3; 2 h n = 3), and HT-29 (1 h n = 3; 2 h n = 3) tumor xenografts. The tumor-bearing mice were injected with ~40 μCi of 4-[^18F]FEBZA. A separate group of normal C57BL/6 mice with no tumor implants (1 h n = 3; 2 h n = 3) was also injected with ~40 μCi of 4-[^18F]FEBZA to study the distribution characteristics of 4-[^18F]FEBZA in the absence of tumors. At 1 h and 2 h post-injection, the mice were euthanized, and the tissues of interest were removed, rinsed with PBS, weighed, and counted for radioactivity contents using a γ-counter.

[2] = tested on: HT-29 human colorectal adenocarcinoma tumor xenografts; test: biodistribution in mice bearing HT-29 tumor xenografts; assay type: in vivo, athymic nu/nu mice; conditions: for tumor-to-brain tissue ratio: HT-29 group; for Adrenals %IA/g tissue (mean ± SD) / Blood %IA/g tissue (mean ± SD) / Bone %IA/g tissue (mean ± SD) / Brain %IA/g tissue (mean ± SD) / Heart %IA/g tissue (mean ± SD) / Kidneys %IA/g tissue (mean ± SD) / Liver %IA/g tissue (mean ± SD) / Lung %IA/g tissue (mean ± SD) / Muscles %IA/g tissue (mean ± SD) / Pancreas %IA/g tissue (mean ± SD) / Sm. Intestine %IA/g tissue (mean ± SD) / Spleen %IA/g tissue (mean ± SD): HT-29 tumor mice; for Tumor %IA/g tissue (mean ± SD): HT-29 tumor
Protocol: as §1, §2

HT-29 tumor = test: microPET imaging in mouse bearing HT-29 tumor; assay type: in vivo, mice
Protocol: In vivo imaging of 4-[^18F]FEBZA in mice bearing B16F1 (n = 2) and HT-29 (n = 1) tumor was performed using a P4 microPET™ scanner (Concorde Microsystems, Inc., Knoxville, TN). After administering ~100 μCi of 4-[^18F]FEBZA via tail-vein injection, whole body PET scans were acquired in list mode. The images were reconstructed using filtered back projection with attenuation correction. Regions Of Interest (ROIs) were drawn on select organs using the summed image from the entire scan acquisition session, and the data were analyzed using ASIPro software (Siemens Preclinical Solutions, Knoxville, TN). The time activity curves (TACs) were generated from the list mode data reconstructed into multiple 5-min frames.

CCN(CC)CCNC(=O)c1ccc(OCC[18F])cc1 [4-[^18F]FEBZA, N-(2-diethylaminoethyl) 4-[^18F]fluoroethoxybenzamide]
IC50 (B16F1 cells; read-out: IC50, first of two distinct binding sites): 1.8 nM
IC50 (B16F1 cells; read-out: IC50, second of two distinct binding sites): 1300 nM
total binding to B16F1 cells (B16F1 melanoma cells; 22 °C): 44.45 ± 0.61%
total binding to B16F1 cells (B16F1 melanoma cells; 37 °C, 1 h incubation): 60.03 ± 0.48%
tumor-to-brain tissue ratio ([1]; 1 h): 3.55 ± 0.80
tumor-to-brain tissue ratio ([1]; 2 h): 3.45 ± 0.81
tumor-to-muscle ratio ([1]; B16F1 mice group, 2 h): 6.64 ± 1.11
Adrenals %IA/g tissue (mean ± SD) ([1]; 1 h post-injection): 1.10 ± 0.36 %IA/g tissue
Blood %IA/g tissue (mean ± SD) ([1]; 1 h post-injection): 3.06 ± 0.52 %IA/g tissue
Bone %IA/g tissue (mean ± SD) ([1]; 1 h post-injection): 3.78 ± 0.45 %IA/g tissue
Brain %IA/g tissue (mean ± SD) ([1]; 1 h post-injection): 2.55 ± 0.61 %IA/g tissue
Heart %IA/g tissue (mean ± SD) ([1]; 1 h post-injection): 2.82 ± 0.25 %IA/g tissue
Kidneys %IA/g tissue (mean ± SD) ([1]; 1 h post-injection): 3.10 ± 0.28 %IA/g tissue
Liver %IA/g tissue (mean ± SD) ([1]; 1 h post-injection): 3.25 ± 0.34 %IA/g tissue
Lung %IA/g tissue (mean ± SD) ([1]; 1 h post-injection): 2.12 ± 0.17 %IA/g tissue
Muscles %IA/g tissue (mean ± SD) ([1]; 1 h post-injection): 1.51 ± 0.21 %IA/g tissue
Pancreas %IA/g tissue (mean ± SD) ([1]; 1 h post-injection): 2.48 ± 0.35 %IA/g tissue
Sm. Intestine %IA/g tissue (mean ± SD) ([1]; 1 h post-injection): 2.48 ± 0.35 %IA/g tissue and 2.49 ± 0.25 %IA/g tissue
Spleen %IA/g tissue (mean ± SD) ([1]; 1 h post-injection): 2.24 ± 0.36 %IA/g tissue
Adrenals %IA/g tissue (mean ± SD) ([1]; 2 h post-injection): 0.88 ± 0.06 %IA/g tissue
Blood %IA/g tissue (mean ± SD) ([1]; 2 h post-injection): 2.51 ± 0.93 %IA/g tissue
Bone %IA/g tissue (mean ± SD) ([1]; 2 h post-injection): 5.45 ± 0.98 %IA/g tissue
Brain %IA/g tissue (mean ± SD) ([1]; 2 h post-injection): 2.25 ± 0.50 %IA/g tissue
Heart %IA/g tissue (mean ± SD) ([1]; 2 h post-injection): 2.12 ± 0.58 %IA/g tissue
Kidneys %IA/g tissue (mean ± SD) ([1]; 2 h post-injection): 2.20 ± 0.38 %IA/g tissue
Liver %IA/g tissue (mean ± SD) ([1]; 2 h post-injection): 2.28 ± 0.49 %IA/g tissue
Lung %IA/g tissue (mean ± SD) ([1]; 2 h post-injection): 1.49 ± 0.49 %IA/g tissue
Muscles %IA/g tissue (mean ± SD) ([1]; 2 h post-injection): 1.14 ± 0.21 %IA/g tissue
Pancreas %IA/g tissue (mean ± SD) ([1]; 2 h post-injection): 1.73 ± 0.14 %IA/g tissue
Sm. Intestine %IA/g tissue (mean ± SD) ([1]; 2 h post-injection): 1.60 ± 0.31 %IA/g tissue
Spleen %IA/g tissue (mean ± SD) ([1]; 2 h post-injection): 1.58 ± 0.18 %IA/g tissue
Tumor %IA/g tissue (mean ± SD) ([1]; 1 h post-injection): 8.66 ± 1.02 %IA/g tissue
Tumor %IA/g tissue (mean ± SD) ([1]; 2 h post-injection): 7.47 ± 1.34 %IA/g tissue
tumor-to-brain tissue ratio ([2]; 1 h): 2.19 ± 0.04
tumor-to-brain tissue ratio ([2]; 2 h): 2.04 ± 0.19
tumor-to-muscle ratio ([2]; HT-29 mice group, 2 h): 2.21 ± 0.17
Adrenals %IA/g tissue (mean ± SD) ([2]; 1 h post-injection): 1.07 ± 0.08 %IA/g tissue
Blood %IA/g tissue (mean ± SD) ([2]; 1 h post-injection): 2.80 ± 0.26 %IA/g tissue
Bone %IA/g tissue (mean ± SD) ([2]; 1 h post-injection): 3.83 ± 0.39 %IA/g tissue
Brain %IA/g tissue (mean ± SD) ([2]; 1 h post-injection): 1.68 ± 0.18 %IA/g tissue
Heart %IA/g tissue (mean ± SD) ([2]; 1 h post-injection): 2.52 ± 0.12 %IA/g tissue
Kidneys %IA/g tissue (mean ± SD) ([2]; 1 h post-injection): 2.91 ± 0.24 %IA/g tissue
Liver %IA/g tissue (mean ± SD) ([2]; 1 h post-injection): 4.84 ± 0.95 %IA/g tissue
Lung %IA/g tissue (mean ± SD) ([2]; 1 h post-injection): 2.19 ± 0.33 %IA/g tissue
Muscles %IA/g tissue (mean ± SD) ([2]; 1 h post-injection): 1.61 ± 0.28 %IA/g tissue
Pancreas %IA/g tissue (mean ± SD) ([2]; 1 h post-injection): 2.41 ± 0.26 %IA/g tissue
Sm. Intestine %IA/g tissue (mean ± SD) ([2]; 1 h post-injection): 1.98 ± 0.62 %IA/g tissue
Spleen %IA/g tissue (mean ± SD) ([2]; 1 h post-injection): 2.11 ± 0.25 %IA/g tissue
Adrenals %IA/g tissue (mean ± SD) ([2]; 2 h post-injection): 0.91 ± 0.19 %IA/g tissue
Blood %IA/g tissue (mean ± SD) ([2]; 2 h post-injection): 2.29 ± 0.23 %IA/g tissue
Bone %IA/g tissue (mean ± SD) ([2]; 2 h post-injection): 5.71 ± 1.11 %IA/g tissue
Brain %IA/g tissue (mean ± SD) ([2]; 2 h post-injection): 1.52 ± 0.28 %IA/g tissue
Heart %IA/g tissue (mean ± SD) ([2]; 2 h post-injection): 2.19 ± 0.37 %IA/g tissue
Kidneys %IA/g tissue (mean ± SD) ([2]; 2 h post-injection): 2.08 ± 0.29 %IA/g tissue
Liver %IA/g tissue (mean ± SD) ([2]; 2 h post-injection): 2.50 ± 0.29 %IA/g tissue
Lung %IA/g tissue (mean ± SD) ([2]; 2 h post-injection): 1.63 ± 0.16 %IA/g tissue
Muscles %IA/g tissue (mean ± SD) ([2]; 2 h post-injection): 1.40 ± 0.24 %IA/g tissue
Pancreas %IA/g tissue (mean ± SD) ([2]; 2 h post-injection): 1.56 ± 0.18 %IA/g tissue
Sm. Intestine %IA/g tissue (mean ± SD) ([2]; 2 h post-injection): 1.42 ± 0.10 %IA/g tissue
Spleen %IA/g tissue (mean ± SD) ([2]; 2 h post-injection): 1.51 ± 0.12 %IA/g tissue
Tumor %IA/g tissue (mean ± SD) ([2]; 1 h post-injection): 3.68 ± 0.47 %IA/g tissue
Tumor %IA/g tissue (mean ± SD) ([2]; 2 h post-injection): 3.07 ± 0.36 %IA/g tissue
standardized uptake value (SUV) of tumor from microPET images (HT-29 tumor): 0.25 ± 0.04
visibility of tumor on microPET scans (HT-29 tumor): not visible; also recorded: not discernable
